Measured values reported in article PMC6352943, “Novel pyrazolo[3,4-d]pyrimidines: design, synthesis, anticancer activity, dual EGFR/ErbB2 receptor tyrosine kinases inhibitory activity, effects on cell cycle profile and caspase-3-mediated apoptosis” (Journal of Enzyme Inhibition and Medicinal Chemistry, 2019).

test system: SK-MEL-28; assay: NCI 60 cell line single dose screen (SRB); format: cell-based; details: Homo sapiens; SK-MEL-28 (melanoma), single dose 10^−5 M, 48 h; read-out: Growth inhibition percentage
Outline: (§1)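 Cells were plated and grown 24 h at 37 °C, 5% CO2 before compound addition from DMSO stock, then exposed 48 h. Adherent cells were fixed with cold TCA (final 10%) and suspension cells with 16% TCA. SRB-stained protein was read at 515 nm and percent growth was calculated against time-zero and untreated plates.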

Compound	inhibition at 10 µM [%]
Cc1nn(-c2ccc(F)cc2)c2ncnc(N)c12 [Compound 4, 1–(4-Fluorophenyl)-3-methyl-1H-pyrazolo[3,4-d]pyrimidin-4-amine]	-3.55
Cc1nn(-c2ccc(F)cc2)c2nc(N)nc(N)c12 [Compound 5, 1–(4-Fluorophenyl)-3-methyl-1H-pyrazolo[3,4-d]pyrimidine-4,6-diamine]	-4.89

test system: T-47D; assay: NCI 60 cell line single dose screen (SRB); format: cell-based; details: Homo sapiens, T47D; T-47D (breast cancer), single dose 10^−5 M, 48 h; read-out: Growth inhibition percentage
Outline: as §1

Compound	inhibition at 10 µM [%]
Cc1nn(-c2ccc(F)cc2)c2ncnc(N)c12 [Compound 4, 1–(4-Fluorophenyl)-3-methyl-1H-pyrazolo[3,4-d]pyrimidin-4-amine]	4.18
Cc1nn(-c2ccc(F)cc2)c2nc(N)nc(N)c12 [Compound 5, 1–(4-Fluorophenyl)-3-methyl-1H-pyrazolo[3,4-d]pyrimidine-4,6-diamine]	-2.65

test system: LOX IMVI; assay: NCI 60 cell line single dose screen (SRB); format: cell-based; details: Homo sapiens; LOX IMVI (melanoma), single dose 10^−5 M, 48 h; read-out: Growth inhibition percentage
Outline: as §1

Compound	inhibition at 10 µM [%]
Cc1nn(-c2ccc(F)cc2)c2ncnc(N)c12 [Compound 4, 1–(4-Fluorophenyl)-3-methyl-1H-pyrazolo[3,4-d]pyrimidin-4-amine]	1.75
Cc1nn(-c2ccc(F)cc2)c2nc(N)nc(N)c12 [Compound 5, 1–(4-Fluorophenyl)-3-methyl-1H-pyrazolo[3,4-d]pyrimidine-4,6-diamine]	2.19

test system: NCI-H322M; assay: NCI 60 cell line single dose screen (SRB); format: cell-based; details: Homo sapiens; NCI-H322M (non-small cell lung cancer), single dose 10^−5 M, 48 h; read-out: Growth inhibition percentage
Outline: as §1

Compound	inhibition at 10 µM [%]
Cc1nn(-c2ccc(F)cc2)c2ncnc(N)c12 [Compound 4, 1–(4-Fluorophenyl)-3-methyl-1H-pyrazolo[3,4-d]pyrimidin-4-amine]	7.26
Cc1nn(-c2ccc(F)cc2)c2nc(N)nc(N)c12 [Compound 5, 1–(4-Fluorophenyl)-3-methyl-1H-pyrazolo[3,4-d]pyrimidine-4,6-diamine]	8.14

test system: 786-0; assay: NCI 60 cell line single dose screen (SRB); format: cell-based; details: Homo sapiens; 786-0 (renal cancer), single dose 10^−5 M, 48 h; read-out: Growth inhibition percentage
Outline: as §1

Compound	inhibition at 10 µM [%]
Cc1nn(-c2ccc(F)cc2)c2ncnc(N)c12 [Compound 4, 1–(4-Fluorophenyl)-3-methyl-1H-pyrazolo[3,4-d]pyrimidin-4-amine]	9.41
Cc1nn(-c2ccc(F)cc2)c2nc(N)nc(N)c12 [Compound 5, 1–(4-Fluorophenyl)-3-methyl-1H-pyrazolo[3,4-d]pyrimidine-4,6-diamine]	2.79

test system: OVCAR-4; assay: NCI 60 cell line single dose screen (SRB); format: cell-based; details: Homo sapiens; OVCAR-4 (ovarian cancer), single dose 10^−5 M, 48 h; read-out: Growth inhibition percentage
Outline: as §1

Compound	inhibition at 10 µM [%]
Cc1nn(-c2ccc(F)cc2)c2ncnc(N)c12 [Compound 4, 1–(4-Fluorophenyl)-3-methyl-1H-pyrazolo[3,4-d]pyrimidin-4-amine]	-4.38
Cc1nn(-c2ccc(F)cc2)c2nc(N)nc(N)c12 [Compound 5, 1–(4-Fluorophenyl)-3-methyl-1H-pyrazolo[3,4-d]pyrimidine-4,6-diamine]	1.28

test system: OVCAR-3; assay: NCI 60 cell line single dose screen (SRB); format: cell-based; details: Homo sapiens; OVCAR-3 (ovarian cancer), single dose 10^−5 M, 48 h; read-out: Growth inhibition percentage
Outline: as §1

Compound	inhibition at 10 µM [%]
Cc1nn(-c2ccc(F)cc2)c2ncnc(N)c12 [Compound 4, 1–(4-Fluorophenyl)-3-methyl-1H-pyrazolo[3,4-d]pyrimidin-4-amine]	-2.81
Cc1nn(-c2ccc(F)cc2)c2nc(N)nc(N)c12 [Compound 5, 1–(4-Fluorophenyl)-3-methyl-1H-pyrazolo[3,4-d]pyrimidine-4,6-diamine]	-12.9

test system: MALME-3M; assay: NCI 60 cell line single dose screen (SRB); format: cell-based; details: Homo sapiens; MALME-3M (melanoma), single dose 10^−5 M, 48 h; read-out: Growth inhibition percentage
Outline: as §1

Compound	inhibition at 10 µM [%]
Cc1nn(-c2ccc(F)cc2)c2ncnc(N)c12 [Compound 4, 1–(4-Fluorophenyl)-3-methyl-1H-pyrazolo[3,4-d]pyrimidin-4-amine]	5.86
Cc1nn(-c2ccc(F)cc2)c2nc(N)nc(N)c12 [Compound 5, 1–(4-Fluorophenyl)-3-methyl-1H-pyrazolo[3,4-d]pyrimidine-4,6-diamine]	-7.8

test system: MDA-MB-231/ATCC; assay: NCI 60 cell line single dose screen (SRB); format: cell-based; details: Homo sapiens; MDA-MB-231/ATCC (breast cancer), single dose 10^−5 M, 48 h; read-out: Growth inhibition percentage
Outline: as §1

Compound	inhibition at 10 µM [%]
Cc1nn(-c2ccc(F)cc2)c2ncnc(N)c12 [Compound 4, 1–(4-Fluorophenyl)-3-methyl-1H-pyrazolo[3,4-d]pyrimidin-4-amine]	-10.8
Cc1nn(-c2ccc(F)cc2)c2nc(N)nc(N)c12 [Compound 5, 1–(4-Fluorophenyl)-3-methyl-1H-pyrazolo[3,4-d]pyrimidine-4,6-diamine]	-9.11

test system: DU-145; assay: NCI 60 cell line single dose screen (SRB); format: cell-based; details: Homo sapiens; DU-145 (prostate cancer), single dose 10^−5 M, 48 h; read-out: Growth inhibition percentage
Outline: as §1

Compound	inhibition at 10 µM [%]
Cc1nn(-c2ccc(F)cc2)c2ncnc(N)c12 [Compound 4, 1–(4-Fluorophenyl)-3-methyl-1H-pyrazolo[3,4-d]pyrimidin-4-amine]	-7.26
Cc1nn(-c2ccc(F)cc2)c2nc(N)nc(N)c12 [Compound 5, 1–(4-Fluorophenyl)-3-methyl-1H-pyrazolo[3,4-d]pyrimidine-4,6-diamine]	-9.51

test system: EKVX; assay: NCI 60 cell line single dose screen (SRB); format: cell-based; details: Homo sapiens; EKVX (non-small cell lung cancer), single dose 10^−5 M, 48 h; read-out: Growth inhibition percentage
Outline: as §1

Compound	inhibition at 10 µM [%]
Cc1nn(-c2ccc(F)cc2)c2ncnc(N)c12 [Compound 4, 1–(4-Fluorophenyl)-3-methyl-1H-pyrazolo[3,4-d]pyrimidin-4-amine]	19.1
Cc1nn(-c2ccc(F)cc2)c2nc(N)nc(N)c12 [Compound 5, 1–(4-Fluorophenyl)-3-methyl-1H-pyrazolo[3,4-d]pyrimidine-4,6-diamine]	6.25

test system: MCF7; assay: NCI 60 cell line single dose screen (SRB); format: cell-based; details: Homo sapiens; MCF7 (breast cancer), single dose 10^−5 M, 48 h; read-out: Growth inhibition percentage
Outline: as §1

Compound	inhibition at 10 µM [%]
Cc1nn(-c2ccc(F)cc2)c2ncnc(N)c12 [Compound 4, 1–(4-Fluorophenyl)-3-methyl-1H-pyrazolo[3,4-d]pyrimidin-4-amine]	9.82
Cc1nn(-c2ccc(F)cc2)c2nc(N)nc(N)c12 [Compound 5, 1–(4-Fluorophenyl)-3-methyl-1H-pyrazolo[3,4-d]pyrimidine-4,6-diamine]	0.73

test system: A498; assay: NCI 60 cell line single dose screen (SRB); format: cell-based; details: Homo sapiens; A498 (renal cancer), single dose 10^−5 M, 48 h; read-out: Growth inhibition percentage
Outline: as §1

Compound	inhibition at 10 µM [%]
Cc1nn(-c2ccc(F)cc2)c2ncnc(N)c12 [Compound 4, 1–(4-Fluorophenyl)-3-methyl-1H-pyrazolo[3,4-d]pyrimidin-4-amine]	0.68
Cc1nn(-c2ccc(F)cc2)c2nc(N)nc(N)c12 [Compound 5, 1–(4-Fluorophenyl)-3-methyl-1H-pyrazolo[3,4-d]pyrimidine-4,6-diamine]	-3.11

test system: HS 578T; assay: NCI 60 cell line single dose screen (SRB); format: cell-based; details: Homo sapiens; HS 578T (breast cancer), single dose 10^−5 M, 48 h; read-out: Growth inhibition percentage
Outline: as §1

Compound	inhibition at 10 µM [%]
Cc1nn(-c2ccc(F)cc2)c2ncnc(N)c12 [Compound 4, 1–(4-Fluorophenyl)-3-methyl-1H-pyrazolo[3,4-d]pyrimidin-4-amine]	-4.94
Cc1nn(-c2ccc(F)cc2)c2nc(N)nc(N)c12 [Compound 5, 1–(4-Fluorophenyl)-3-methyl-1H-pyrazolo[3,4-d]pyrimidine-4,6-diamine]	-3.27

test system: HCT-116; assay: NCI 60 cell line single dose screen (SRB); format: cell-based; details: Homo sapiens; HCT-116 (colon cancer), single dose 10^−5 M, 48 h; read-out: Growth inhibition percentage
Outline: as §1

Compound	inhibition at 10 µM [%]
Cc1nn(-c2ccc(F)cc2)c2ncnc(N)c12 [Compound 4, 1–(4-Fluorophenyl)-3-methyl-1H-pyrazolo[3,4-d]pyrimidin-4-amine]	-8.66
Cc1nn(-c2ccc(F)cc2)c2nc(N)nc(N)c12 [Compound 5, 1–(4-Fluorophenyl)-3-methyl-1H-pyrazolo[3,4-d]pyrimidine-4,6-diamine]	-2.75

test system: HOP-62; assay: NCI 60 cell line single dose screen (SRB); format: cell-based; details: Homo sapiens; HOP-62 (non-small cell lung cancer), single dose 10^−5 M, 48 h; read-out: Growth inhibition percentage
Outline: as §1

Compound	inhibition at 10 µM [%]
Cc1nn(-c2ccc(F)cc2)c2ncnc(N)c12 [Compound 4, 1–(4-Fluorophenyl)-3-methyl-1H-pyrazolo[3,4-d]pyrimidin-4-amine]	-8.24
Cc1nn(-c2ccc(F)cc2)c2nc(N)nc(N)c12 [Compound 5, 1–(4-Fluorophenyl)-3-methyl-1H-pyrazolo[3,4-d]pyrimidine-4,6-diamine]	-8.35

test system: COLO 205; assay: NCI 60 cell line single dose screen (SRB); format: cell-based; details: Homo sapiens, COLO 205, 48 h; read-out: Growth inhibition percentage
Outline: as §1

Compound	inhibition at 10 µM [%]
Cc1nn(-c2ccc(F)cc2)c2ncnc(N)c12 [Compound 4, 1–(4-Fluorophenyl)-3-methyl-1H-pyrazolo[3,4-d]pyrimidin-4-amine]	-18.4
Cc1nn(-c2ccc(F)cc2)c2nc(N)nc(N)c12 [Compound 5, 1–(4-Fluorophenyl)-3-methyl-1H-pyrazolo[3,4-d]pyrimidine-4,6-diamine]	-13.5

test system: MDA-MB-468; assay: NCI 60 cell line single dose screen (SRB); format: cell-based; details: Homo sapiens; MDA-MB-468 (breast cancer), single dose 10^−5 M, 48 h; read-out: Growth inhibition percentage
Outline: as §1

Compound	inhibition at 10 µM [%]
Cc1nn(-c2ccc(F)cc2)c2ncnc(N)c12 [Compound 4, 1–(4-Fluorophenyl)-3-methyl-1H-pyrazolo[3,4-d]pyrimidin-4-amine]	-13.2
Cc1nn(-c2ccc(F)cc2)c2nc(N)nc(N)c12 [Compound 5, 1–(4-Fluorophenyl)-3-methyl-1H-pyrazolo[3,4-d]pyrimidine-4,6-diamine]	-15.5

test system: NCI-H226; assay: NCI 60 cell line single dose screen (SRB); format: cell-based; details: Homo sapiens; NCI-H226 (non-small cell lung cancer), single dose 10^−5 M, 48 h; read-out: Growth inhibition percentage
Outline: as §1

Compound	inhibition at 10 µM [%]
Cc1nn(-c2ccc(F)cc2)c2ncnc(N)c12 [Compound 4, 1–(4-Fluorophenyl)-3-methyl-1H-pyrazolo[3,4-d]pyrimidin-4-amine]	-7.4
Cc1nn(-c2ccc(F)cc2)c2nc(N)nc(N)c12 [Compound 5, 1–(4-Fluorophenyl)-3-methyl-1H-pyrazolo[3,4-d]pyrimidine-4,6-diamine]	-8.08

test system: OVCAR-8; assay: NCI 60 cell line single dose screen (SRB); format: cell-based; details: Homo sapiens; OVCAR-8 (ovarian cancer), single dose 10^−5 M, 48 h; read-out: Growth inhibition percentage
Outline: as §1

Compound	inhibition at 10 µM [%]
Cc1nn(-c2ccc(F)cc2)c2ncnc(N)c12 [Compound 4, 1–(4-Fluorophenyl)-3-methyl-1H-pyrazolo[3,4-d]pyrimidin-4-amine]	-4.64
Cc1nn(-c2ccc(F)cc2)c2nc(N)nc(N)c12 [Compound 5, 1–(4-Fluorophenyl)-3-methyl-1H-pyrazolo[3,4-d]pyrimidine-4,6-diamine]	-7.15

test system: K-562; assay: NCI 60 cell line single dose screen (SRB); format: cell-based; details: Homo sapiens, K562; K-562 (leukemia), single dose 10^−5 M, 48 h; read-out: Growth inhibition percentage
Outline: as §1

Compound	inhibition at 10 µM [%]
Cc1nn(-c2ccc(F)cc2)c2ncnc(N)c12 [Compound 4, 1–(4-Fluorophenyl)-3-methyl-1H-pyrazolo[3,4-d]pyrimidin-4-amine]	1.98
Cc1nn(-c2ccc(F)cc2)c2nc(N)nc(N)c12 [Compound 5, 1–(4-Fluorophenyl)-3-methyl-1H-pyrazolo[3,4-d]pyrimidine-4,6-diamine]	-11.9
